From patent US20110144374A1, “OXIME ETHER DERIVATIVE AND FUNGICIDE FOR AGRICULTURE AND HORTICULTURE” (Nippon Soda Co., Ltd., priority 2008, published 2011) come the findings set out here.

The melting point is the temperature, or range, at which the solid turns liquid.

The compound `COC(=O)NOc1cc(/C(C)=N/OCc2ccccc2I)ccc1Cl` [Compound 11-9, N-{2-chloro-5-[1-(2-iodobenzyloxyimino)ethyl]phenoxy}methyl carbamate] showed a melting point of 121 to 122 °C. Turning to `COC(=O)NOc1cc(/C(C)=N/OCc2cccc(F)c2C(F)(F)F)ccc1Cl` [Compound 1-13, N-(2-chloro-5-{1-[3-fluoro-2-(trifluoromethyl)benzyloxyimino]ethyl}phenoxy)methyl carbamate], the melting point was in the range of 104 to 105 °C. In the case of `COC(=O)NOc1cc(/C(C)=N/OCc2ccccc2C(F)(F)F)ccc1C` [Compound 21-24, N-{2-methyl-5-[1-(2-trifluoromethylbenzyloxyimino)ethyl]phenoxy}methyl carbamate], the melting point is 82 to 85 °C.
